# Measurements from ChEMBL document CHEMBL5233241, “A medicinal chemistry perspective of drug repositioning: Recent advances and challenges in drug discovery” (Eur J Med Chem, 2020).
# Where a name gives a salt, the structure may show the parent alone.
# Columns and labels:
# Plasmodium = experiment: Antimalarial activity against Plasmodium; format: functional, organism-based
# [1] = system: Middle East respiratory syndrome-related coronavirus; experiment: Antiviral activity against MERS-CoV/KOR/KNIH/002_05_2015 infected in human Huh-7 cells assessed as reduction in virus-induced cytopathic effect incubated for 3 days by CellTiter 96 aqueous one solution cell proliferation assay; format: functional, organism-based; conditions: KOR/KNIH/002_05_2015, Huh-7, 72 h
# [2] = Cytotoxicity against human Huh-7 cells; format: toxicity, cell-based
# Plasmodium falciparum = experiment: Antimalarial activity against Plasmodium falciparum W2; format: functional, organism-based
# Tyrosinase = target: T1, Tyrosinase (Agaricus bisporus, UniProt O42713); experiment: Inhibition of mushroom tyrosinase
# T1 sequence (O42713 whole entry): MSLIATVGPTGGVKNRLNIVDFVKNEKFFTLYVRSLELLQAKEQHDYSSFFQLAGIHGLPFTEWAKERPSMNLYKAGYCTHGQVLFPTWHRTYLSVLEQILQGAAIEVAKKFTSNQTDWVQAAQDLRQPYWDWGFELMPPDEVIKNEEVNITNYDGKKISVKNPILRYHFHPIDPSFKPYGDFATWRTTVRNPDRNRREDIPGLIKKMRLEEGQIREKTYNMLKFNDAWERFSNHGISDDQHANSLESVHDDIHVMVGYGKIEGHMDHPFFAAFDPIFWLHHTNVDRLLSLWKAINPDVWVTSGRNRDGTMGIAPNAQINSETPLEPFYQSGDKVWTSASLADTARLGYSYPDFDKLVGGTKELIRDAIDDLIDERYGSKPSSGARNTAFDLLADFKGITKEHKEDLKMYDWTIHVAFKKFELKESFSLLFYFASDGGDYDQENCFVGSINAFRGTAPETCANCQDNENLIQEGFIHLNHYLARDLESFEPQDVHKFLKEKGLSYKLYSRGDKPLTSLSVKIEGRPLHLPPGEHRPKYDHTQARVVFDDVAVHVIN
# [3] = Inhibition of melanin production in mouse B16 cells assessed as reduction in melanin content at up to 20 uM relative to control; format: functional
# Mus musculus [4] = experiment: Anti-alzheimer activity against young APP/PS1 mouse model assessed as reduction in amyloid beta (1 to 40 residues) level at 100 mg/kg, po administered daily and measured for 14 days; format: functional; set-up: scale not given: the % may be the effect or the level left; conditions: time 14 day
# Mus musculus [5] = experiment: Anti-alzheimer activity against old APP/PS1 mouse model assessed as reduction in amyloid beta (1 to 40 residues) level at 100 mg/kg, po administered daily and measured for 14 days; format: functional; set-up: scale not given: the % may be the effect or the level left; conditions: time 14 day
# Mus musculus [6] = experiment: Anti-alzheimer activity against young APP/PS1 mouse model assessed as reduction in amyloid beta (1 to 42 residues) level at 100 mg/kg, po administered daily and measured for 14 days; format: functional; set-up: scale not given: the % may be the effect or the level left; conditions: time 14 day
# Mus musculus [7] = experiment: Anti-alzheimer activity against old APP/PS1 mouse model assessed as reduction in amyloid beta (1 to 42 residues) level at 100 mg/kg, po administered daily and measured for 14 days; format: functional; set-up: scale not given: the % may be the effect or the level left; conditions: time 14 day
# Mus musculus [8] = experiment: Anti-alzheimer activity against APP/PS1 mouse model assessed as reduction in insoluble amyloid beta level at 100 mg/kg, po administered daily and measured for 90 days; format: functional; set-up: scale not given: the % may be the effect or the level left; conditions: time 90 day
# [9] = system: Middle East respiratory syndrome-related coronavirus; experiment: Antiviral activity against MERS-CoV isolate EMC/2012 infected in human Huh-7 cells assessed as reduction in virus-induced cytopathic effect incubated for 2 days by MTS assay; format: functional, organism-based; conditions: EMC/2012, Huh-7, 48 h
# SARS-CoV = experiment: Antiviral activity against SARS-CoV isolate Frankfurt-1 infected in Vero E6 cells assessed as reduction in virus-induced cytopathic effect incubated for 3 days by MTS assay; format: functional, organism-based; conditions: Severe acute respiratory syndrome-related coronavirus, Frankfurt-1, Vero C1008, 72 h
# Human coronavirus 229E = experiment: Antiviral activity against hCoV-229E expressing GFP infected in human Huh-7 cells assessed as reduction in virus-induced cytopathic effect incubated for 24 hrs by MTS assay; format: functional, organism-based; conditions: Huh-7, 24 h
# [10] = Inhibition of Wnt signalling in HEK293T cells; format: cell-based; conditions: Homo sapiens, HEK-293T
# [11] = Inhibition of Wnt signalling in human BT-20 cells; format: cell-based
smiles,measurement,setting,value
CCCc1nc2c(C)cc(-c3nc4ccccc4n3C)cc2n1Cc1ccc(-c2ccccc2C(=O)O)cc1,IC50,Plasmodium,0.025 µM
COc1ccc(C2=NC(c3ccc(Cl)cc3)C(c3ccc(Cl)cc3)N2C(=O)N2CCNC(=O)C2)c(OC(C)C)c1 (stereo not given),EC50,[1],36.9 µM
same,CC50,[2],26.8 µM
CCN(CC)Cc1cc(Nc2ccnc3cc(Cl)ccc23)ccc1O,EC50,[1],2.1 µM
COc1ccc(-c2nc(-c3cc(C(F)(F)F)cc(C(F)(F)F)c3)n(Cc3ccc(C(N)=O)cc3)c2-c2ccc(OC)cc2)cc1,EC50,Plasmodium falciparum,4.5 µM
COc1ccc2[nH]c([S@@+]([O-])Cc3ncc(C)c(OC)c3C)nc2c1,IC50,Plasmodium,0.29 µM
N=C(N)c1ccc(OCCCCCOc2ccc(C(=N)N)cc2)cc1,IC50,Plasmodium,< 0.5 µM
CC(=O)c1ccc2c(c1)N(CCCN1CCN(CCO)CC1)c1ccccc1S2 [ACETOPHENAZINE],EC50,[1],11.2 µM
same,CC50,[2],23.6 µM
N=C(N)N/N=C1C=C/C(=N\NC(N)=S)C=C\1 [AMBAZONE],IC50,Tyrosinase,15 µM
same,inhibition (INH),[3],20%
CC(=O)Nc1ccc(/C=N/NC(N)=S)cc1 [AMITHIOZONE],IC50,Tyrosinase,14 µM
Cn1cnc([N+](=O)[O-])c1Sc1ncnc2nc[nH]c12 [AZATHIOPRINE],Ki,Tyrosinase,> 1000 µM
C=C(c1ccc(C(=O)O)cc1)c1cc2c(cc1C)C(C)(C)CCC2(C)C [BEXAROTENE],Activity,Mus musculus [4],25%
same,Activity,Mus musculus [5],25%
same,Activity,Mus musculus [6],25%
same,Activity,Mus musculus [7],25%
same,Activity,Mus musculus [8],30%
CCOC(=O)n1ccn(C)c1=S [CARBIMAZOLE],IC50,Tyrosinase,186 µM
CCN(CC)CCCC(C)Nc1ccnc2cc(Cl)ccc12 (stereo not given) [CHLOROQUINE],EC50,[9],3 µM
same,EC50,SARS-CoV,4.1 µM
CN(C)CCCN1c2ccccc2Sc2ccc(Cl)cc21 [CHLORPROMAZINE],EC50,[9],4.9 µM
same,EC50,SARS-CoV,8.8 µM
same,EC50,Human coronavirus 229E,2.5 µM
CN1CCC[C@@H]1CCO[C@](C)(c1ccccc1)c1ccc(Cl)cc1 [CLEMASTINE FUMARATE],IC50,Plasmodium,2.2 µM
CC(C)/N=c1\cc2n(-c3ccc(Cl)cc3)c3ccccc3nc-2cc1Nc1ccc(Cl)cc1 [CLOFAZIMINE],IC50,[10],6 µM
same,IC50,[11],7 µM
C/C=C/C[C@@H](C)[C@@H](O)[C@H]1C(=O)N[C@@H](CC)C(=O)N(C)CC(=O)N(C)[C@@H](CC(C)C)C(=O)N[C@@H](C(C)C)C(=O)N(C)[C@@H](CC(C)C)C(=O)N[C@@H](C)C(=O)N[C@H](C)C(=O)N(C)[C@@H](CC(C)C)C(=O)N(C)[C@@H](CC(C)C)C(=O)N(C)[C@@H](C(C)C)C(=O)N1C [CYCLOSPORINE],IC50,Plasmodium,1.7 µM
CN(C)CC/C=C1\c2ccccc2CSc2ccccc21 [DOTHIEPIN HYDROCHLORIDE],EC50,[1],3.4 µM
same,CC50,[2],28.9 µM
